These results are taken from patent US5373009A, “Dibenzofuranyl esters of N-heterocyclic carboxylic acids” (priority 1994, dated 1994).

Molecules are shown by their SMILES.

For experiment [1], the system named is absorption of 14C-cholesterol. The experiment is described as follows: In vivo cholesterol absorption in normal rats (serum radioactivity after oral [4-14C] cholesterol). To be noted: serum radioactivity at 6 hr, vs control. The procedure:
The in vivo cholesterol absorption studies were conducted in normal rats by oral administration of the compound being tested in propylene glycol and olive oil followed by oral administration of [4-^14 C] cholesterol in propylene glycol and olive oil, otherwise following the procedure of Cayen et al., J. Lipid Res. 20, 162 (1979). The serum radioactivity was measured at six hours after dosing. The results of this study are reported in Table I as percent decrease compared to control.

Experiment [2] deals with T1, cholesterol ester hydrolase (CEH) (Bos taurus, UniProt P30122).
T1 construct: purchased Sigma Company, St. Louis, Mo., U.S.A. C-1892; host or cells: bovine pancreas
The experiment is described as follows: In vitro inhibition of cholesteryl ester formation by cholesterol esterase (CEH). In kind it is biochemical. To be noted: 37° C.; cholesterol and oleic acid; cholesterol esterase from bovine pancreas. The procedure:
The ability of the compounds of this invention to inhibit the formation of cholesteryl esters and thereby interfere with and prevent assimilation of cholesterol into the lymphatic system and ultimately the blood stream was established by incubating the compounds at 37° C. with a mixture of cholesterol and oleic acid in the presence of buffered cholesterol esterase [(EC 3.1.1.13) Sigma Company, St. Louis, Mo., U.S.A., No. C-1892, from bovine pancreas] and measuring the amount of ester formed, according to the procedure of Field, J. of Lipid Research, 25, 389 (1984).

The test system of experiment [3] is CEH. To be noted: prior art statement; cited from earlier work.

T1 sequence (P30122 19-597): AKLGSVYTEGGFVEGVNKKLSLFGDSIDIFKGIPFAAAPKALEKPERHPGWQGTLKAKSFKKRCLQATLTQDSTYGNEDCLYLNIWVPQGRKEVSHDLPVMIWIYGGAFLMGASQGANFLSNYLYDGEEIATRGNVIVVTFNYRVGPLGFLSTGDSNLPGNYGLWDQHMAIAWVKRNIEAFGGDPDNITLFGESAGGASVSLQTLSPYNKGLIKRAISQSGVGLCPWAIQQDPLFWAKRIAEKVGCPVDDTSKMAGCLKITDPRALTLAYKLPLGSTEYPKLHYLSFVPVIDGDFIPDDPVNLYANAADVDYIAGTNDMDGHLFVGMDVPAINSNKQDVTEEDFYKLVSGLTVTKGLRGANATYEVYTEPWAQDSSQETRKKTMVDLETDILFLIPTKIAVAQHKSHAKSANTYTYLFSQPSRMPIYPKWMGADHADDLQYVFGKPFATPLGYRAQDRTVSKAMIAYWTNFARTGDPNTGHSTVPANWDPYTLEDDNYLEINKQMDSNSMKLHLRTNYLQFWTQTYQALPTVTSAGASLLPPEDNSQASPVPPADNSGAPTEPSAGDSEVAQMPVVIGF

Regarding `O=C(Oc1ccc2oc3ccccc3c2c1)N1CCSCC1` [Example 2, 4-Thiomornholinecarboxylic acid 2-dibenzofuranyl ester], the “Effect on Absorption of ^14 C-chol-6 hr-normal rat, % Decrease” value in experiment [1] (10 mg/kg) was 16%. This molecule came in with a half-inhibitory concentration (IC50) in experiment [2] of 0.51 µM. For `O=C(Oc1ccc2oc3ccccc3c2c1)N1CCC2(CCCC2)CC1` [Example 4, 8-Azaspiro[4,5]decane-8-carboxylic acid 2-dibenzofuranyl ester], the “Effect on Absorption of ^14 C-chol-6 hr-normal rat, % Decrease” value in experiment [1] (3 mg/kg) is 55%. Moreover, the IC50 in experiment [2] amounted to 15 µM. On the same counts, the results for `CC1(C)CCN(C(=O)Oc2ccc3oc4ccccc4c3c2)CC1` [Example 3, 4,4-Dimethyl-1-piperidinecarboxylic acid 2-dibenzofuranyl ester] are 44% and 6.5 µM. Turning to `CNC(=O)OC1CCN(C(=O)Oc2ccc(Oc3ccccc3)cc2)CC1` [4-[[methylamino)carbonyl]oxy]-1-piperidinecarboxylic acid 4-phenoxyphenyl ester], in experiment [3], the “CEH inhibitor (in words)” value is “CEH inhibitor”.

One may read the IC50 as the midpoint of a concentration-inhibition curve.
